From patent publication US6482797B1, “N-terminal site selective inhibitors of human angiotensin conversion enzyme (ACE)” (Commissariat A l'Energie Atomique, priority 1998, dated 2002)
Where two headings read alike, the source gives them in different places. Each block holds one compound with its values, some of them ahead of it. Where a SMILES comes first, the peptide text is derived from it.

Experiments:
[1] = biological target: T1, N-terminal site of human angiotensin-converting enzyme (Active N-terminal ACE) (Homo sapiens, UniProt P12821, H988K/H992K); experiment: ACE inhibition, quenched fluorescence substrate, N-terminal mutant (C-terminal site inactive); format: biochemical; conditions: for degree of selectivity in favour of the N-terminal site (FIG. 3): N-terminal site at 100 nM, C-terminal site at 5 μM
T1 construct: made in house; host or cells: CHO cells
Experimental: (§1) Said mixtures were evaluated at final peptide concentrations of 200 nM in order to determine their ACE inhibitory capacity. To assay ACE, a new quenched fluorescence ACE substrate (Mca-Ala-Ser-Asp-Lys-Dpa) was developed, where Mca represents methoxy coumarine and Dpa 2-(N-dinitrophenyl)aminopropionic acid. Said substrate, which is […], emits an intense fluorescent signal after splitting, between the Asp and Lys residues, by ACE. Using this type of substrate, it is possible to test the inhibitory power of a very large number of compounds in Elisa plates.
(§2) The inhibitory power of the compounds is determined in a conventional competition test based on the breakdown of the quenched fluorescence substrate […]. The breakdown of said substrate by ACE results in the observation of a fluorescent signal at 400 nm, when the sample is excited at 328 nm. The inhibition experiments are conducted in Elisa plate wells, in volumes of 200 μl of buffer: pH 6.8, 50 mM Hepes, 200 mM NaCl, 1 mM ZnCl2, at 25° C., in a Dynatech Fluorolite 1000 type unit. The concentration of the substrate in a typical experiment is 20 μM. For the inhibition experiments, the inhibitor is placed in the presence of the enzyme for 45 min, and the reaction is then initiated by simply adding a very small volume of substrate. The inhibition percentages are calculated from the initial rate variations in the presence of inhibitor. The breakdown kinetics were determined from the record of the fluorescence variations over a 40 min time interval.
(§3) Said mutants were produced from CHO cells.

[2] = Plasma concentration of tritiated RXP 407 after intravenous bolus; parameters: species or system rats; conditions: rat, in vivo, 5 mg/kg
Experimental: (§4) For this purpose, an RXP 407 comprising three tritium atoms on the N-acetyl group is synthesised to be able to conduct a study on the pharmacokinetics and metabolism of said molecule in rats, by injecting said product at doses of 0.1, 1 and 5 mg/kg by intravenous bolus.
The plasma concentration of RXP 407 as a function of time is then determined.
The results obtained are represented in FIG. 7. Curve 1 corresponds to 0.1 mg/kg, curve 2 to 1 mg/kg and curve 3 to 5 mg/kg. The dotted curve illustrates the Ki of RXP 407 (20 nM).

[3] = test system: plasma Ac-Ser-Asp-Lys-Pro (Ac-SDKP); experiment: Plasma Ac-SDKP concentration after 30 minute infusion; format: in vivo; conditions: mice, infusion for 30 minutes; RXP 407 0.1, 1, 10 mg/kg; Lisinopril 10 mg/kg
Experimental: For this purpose, the mice undergo an infusion of RXP 407 for 30 minutes, at doses of 0.1, 1 and 10 mg/kg and the Ac-Ser-Asp-Lys-Pro-(Ac-SDKP) peptide concentration of the mouse plasma is determined.
The Ac-Ser-Asp-Lys-Pro is determined by a competition immunoenzyme assay using polyclonal antibodies and Ac-SDKP linked to Electrophorus Electricus acetyicholinesterase.
The same plasma Ac-SDKP measurements are made on mice infused with Lisinopril of a 10 mg/kg dose and on non-infused control mice. Lisinopril is an inhibitor used in clinical practice which inhibits both active sites of ACE non-selectively.

wild human ACE = biological target: T2, wild human ACE (Homo sapiens, UniProt P12821); experiment: Inhibition of natural ACE as a function of RXP 407 concentration; format: biochemical; conditions: wild human ACE from CHO cells
T2 construct: made in house; host or cells: CHO cells
Experimental: as §2
In this example, the RXP 407 peptide is used as a natural ACE inhibitor, and the effect of the RXP 407 concentration (in nM) on the ACE inhibition percentage is studied.
The inhibitory power of the compound is determined as in example 1 using wild human ACE produced by CHO cells according to the protocol described in the reference Wei et al, J. Biol. Chem. (1992) 267, 13398-13405 [14].

[4] = Elimination and metabolism of tritiated RXP 407 in vivo; parameters: species or system rats; conditions: rat
Experimental: as §4

plasma renin = experiment: Plasma renin level (angiotensin I formed) after infusion; format: in vivo; conditions: mice; RXP 407 0.1, 1, 10 mg/kg; Lisinopril 10 mg/kg
Experimental: In this example, the effect of RXP 407 on the levels of renin, another enzyme involved in arterial pressure regulation, is determined. Inhibition of ACE with a conventional inhibitor of said enzyme stops the hydrolysis of angiotensin I into angiotensin II. Angiotensin is indeed one of the physiological substrates of ACE. The decrease in the angiotensin II level in plasma by a retrocontrol mechanism, increases the plasma level of renin, an enzyme directly involved in the production of angiotensin I, from angiotensinogen.
In this way, the inhibition of ACE may be monitored indirectly by the plasma renin level.
This level may be evaluated by the capacity of renin in plasma samples to hydrolyse excess angiotensinogen present in mouse plasma. The formation of angiotensin I is then measured by a radioimmunological assay and the renin level is expressed in ng of angiotensin I formed per ml of plasma and per hour of incubation.

[5] = test system: ACE N-terminal domain versus C-terminal domain; conditions: in vitro; cited from earlier work
[6] = biological target: T3, C-terminal site of human angiotensin-converting enzyme (Active C-terminal ACE) (Homo sapiens, UniProt P12821, H390K/H394K); experiment: ACE inhibition, quenched fluorescence substrate, C-terminal mutant (N-terminal site inactive); format: biochemical; conditions: C-terminal mutant of ACE from CHO cells
T3 construct: made in house; host or cells: CHO cells
Experimental: as §1, §2, §3

plasma AcSDKP = conditions: single dose, healthy volunteer subjects; cited from earlier work
[7] = N-terminal mutant of ACE from CHO cells, read-out: Ki Active N-terminal ACE

T3 sequence (P12821 30-1306 H390K/H394K): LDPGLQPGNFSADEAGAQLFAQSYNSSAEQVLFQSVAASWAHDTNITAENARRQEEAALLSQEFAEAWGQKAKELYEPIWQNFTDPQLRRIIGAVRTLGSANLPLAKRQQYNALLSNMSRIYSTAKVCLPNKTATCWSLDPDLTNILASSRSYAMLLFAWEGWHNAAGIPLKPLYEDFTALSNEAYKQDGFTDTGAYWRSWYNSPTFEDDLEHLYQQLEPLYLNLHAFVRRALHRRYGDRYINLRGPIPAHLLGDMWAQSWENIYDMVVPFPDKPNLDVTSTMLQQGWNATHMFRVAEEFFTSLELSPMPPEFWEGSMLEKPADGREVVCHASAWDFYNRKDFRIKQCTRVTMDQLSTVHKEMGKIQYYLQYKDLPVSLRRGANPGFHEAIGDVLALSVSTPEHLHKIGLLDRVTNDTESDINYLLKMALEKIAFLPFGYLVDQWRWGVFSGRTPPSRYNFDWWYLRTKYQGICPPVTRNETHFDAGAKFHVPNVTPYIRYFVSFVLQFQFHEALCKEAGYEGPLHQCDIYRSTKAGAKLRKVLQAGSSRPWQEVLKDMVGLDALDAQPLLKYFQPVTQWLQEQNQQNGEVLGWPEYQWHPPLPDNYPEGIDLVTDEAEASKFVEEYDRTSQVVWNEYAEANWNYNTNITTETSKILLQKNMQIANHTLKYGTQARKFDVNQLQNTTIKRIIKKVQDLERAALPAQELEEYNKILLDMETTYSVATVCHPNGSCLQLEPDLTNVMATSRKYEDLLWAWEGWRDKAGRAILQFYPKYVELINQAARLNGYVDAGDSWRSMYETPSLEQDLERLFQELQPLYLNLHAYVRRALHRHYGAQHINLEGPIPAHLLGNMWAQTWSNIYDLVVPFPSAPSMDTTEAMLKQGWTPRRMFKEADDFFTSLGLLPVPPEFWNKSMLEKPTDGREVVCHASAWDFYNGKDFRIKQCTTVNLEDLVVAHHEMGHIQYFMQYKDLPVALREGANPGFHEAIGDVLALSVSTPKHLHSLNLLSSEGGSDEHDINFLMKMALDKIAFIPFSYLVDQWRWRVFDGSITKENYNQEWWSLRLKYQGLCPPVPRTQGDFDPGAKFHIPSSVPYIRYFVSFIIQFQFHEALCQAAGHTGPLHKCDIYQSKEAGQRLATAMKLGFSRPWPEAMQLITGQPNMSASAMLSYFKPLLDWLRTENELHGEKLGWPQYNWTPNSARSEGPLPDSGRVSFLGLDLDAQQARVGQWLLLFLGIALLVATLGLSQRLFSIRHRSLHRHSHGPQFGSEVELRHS
T1 sequence (P12821 30-1306 H988K/H992K): as the sequence (P12821 30-1306 H390K/H394K) above, with K361H, K365H, H959K, H963K counted along it
T2 sequence (P12821 30-1306): as the sequence (P12821 30-1306 H390K/H394K) above, with K361H, K365H counted along it

Compound: proline
degree of selectivity in favour of the N-terminal site (FIG. 3) [1]: improve the degree of selectivity in favour of the N-terminal site

Compound: CC(=O)N[C@@H](CC(=O)O)C(=O)NC(Cc1ccccc1)P(=O)(O)CC(C)C(=O)N[C@@H](C)C(N)=O (stereo partly drawn) [Ac-Asp-Pheψ (PO2CH2) Ala-AlaNH2, Ac-Asp-PheΨ(PO2CH2)Ala-Ala-NH2]
Ki [1, 7]: 25 nM | degree of selectivity in favour of the N-terminal site (FIG. 3) [1]: improve the degree of selectivity in favour of the N-terminal site

Compound: CC(=O)N[C@@H](CC(=O)O)C(=O)N[C@@H](Cc1ccccc1)P(=O)(O)C[C@@H](C)C(=O)N[C@@H](C)C(N)=O [RXP 407, Ac-Asp-(R)Phe(PO2CH2)-(S)Ala-Ala-NH2]
plasma RXP 407 concentration [2]: 100 ng/mL | plasma level of Ac-SDKP peptide (FIG. 8) [3]: very significant increase | Ki [1, 7]: 12 nM | Ki ([1]; value drawn in plasma concentration figure, read-out: Ki of RXP 407 (dotted curve of FIG. 7)): 20 nM | IC50 values with respect to the N and C-terminal sites of natural ACE (inflection points, FIG. 6) (wild human ACE): compatible with the Ki values measured using the ACE mutants | Total [4]: 100.09±7 % of injected radioactivity | eliminated in urine [4]: 87% | metabolism (structure of the product in urine and faeces) [4]: does not undergo any metabolism | product detected in the airways [4]: No trace of this product is detected | dose excreted ([4]; iv, total radioactivity): 13% | plasma renin level (FIG. 9) (plasma renin): does not induce an increase in renin

Compound: NCCCC[C@H](N[C@@H](CCc1ccccc1)C(=O)O)C(=O)N1CCC[C@H]1C(=O)O [Lisinopril, reference compound]
plasma renin level (FIG. 9) (plasma renin): induces an increase in the plasma renin level

Compound: CC(=O)N[C@@H](CO)C(=O)N[C@@H](CC(=O)O)C(=O)N[C@@H](CCCCN)C(=O)N1CCC[C@H]1C(=O)O [AcSDKP, N-Acetyl-Seryl-Aspartyl-Lysyl-Proline] (Ac-SDKP-OH)
hydrolysed more quickly by the N-terminal domain than by the C-terminal domain [5]: 50 times

Ki [1, 7]: 2 nM | Ki [6]: 7 nM
Compound: CC(=O)N[C@@H](CC(=O)O)C(=O)NC(Cc1ccccc1)P(=O)(O)CC(C)C(=O)N[C@@H](C)C(=O)O (stereo partly shown) [Ac-Asp-Pheψ (PO2CH2) Ala-AlaOH]

Ki [1, 7]: 15 nM | Ki [6]: 200 nM
Compound: CC(=O)N[C@@H](C)C(=O)NC(Cc1ccccc1)P(=O)(O)CC(C)C(=O)N[C@@H](C)C(N)=O (stereo partly shown) [Ac-Ala-Pheψ (PO2CH2) Ala-AlaNH2]

Compound: C[C@H](CS)C(=O)N1CCC[C@H]1C(=O)O [captopril]
increase of the plasma level of AcSDKP (plasma AcSDKP): 6 to 7 fold

Ki [1, 7]: 5 nM | Ki [6]: 800 nM
Compound: CC(CP(=O)(O)C(Cc1ccccc1)NC(=O)[C@@H](N)CC(=O)O)C(=O)N[C@@H](C)C(N)=O (stereo partly shown) [H2N-Asp-Pheψ (PO2CH2) Ala-AlaNH2]

Ki [1, 7]: 2 nM | Ki [6]: 60 nM
Compound: CC(CP(=O)(O)C(Cc1ccccc1)NC(=O)[C@@H](N)CC(=O)O)C(=O)N[C@@H](C)C(=O)O (stereo partly shown) [H2N-Asp-Pheψ (PO2CH2) Ala-AlaOH]
